According to ChEMBL document CHEMBL3885881, “DrugMatrix”:

Species on record: Rattus norvegicus
Assay: DrugMatrix - Regimen: Daily Repeat
Format: toxicity, organism-based, Sprague-Dawley
Design: regimen Daily Repeat, gender Male, age 6-8 weeks
Conditions: in vivo, po, 15 mg/kg, route oral GAVAGE, dose level Low, vehicle 100 % WATER; for ABSOLUTE BASOPHIL / ABSOLUTE EOSINOPHIL / ABSOLUTE LYMPHOCYTE / ABSOLUTE MONOCYTE / ABSOLUTE SEGMENTED NEUTROPHIL / BASOPHIL / EOSINOPHIL / ERYTHROCYTE COUNT / HEMATOCRIT / HEMOGLOBIN / LEUKOCYTE COUNT / LYMPHOCYTE / MEAN CORPUSCULAR HEMOGLOBIN / MEAN CORPUSCULAR HEMOGLOBIN CONCENTRATION / MEAN CORPUSCULAR VOLUME / MONOCYTE / NEUTROPHIL / NUCLEATED RED BLOOD CELLS / PLATELET COUNT: tissue Blood; for ALANINE AMINOTRANSFERASE / ALBUMIN / ALKALINE PHOSPHATASE / ASPARTATE AMINOTRANSFERASE / BLOOD UREA NITROGEN / CARBON DIOXIDE / CHLORIDE / CHOLESTEROL / CREATINE PHOSPHOKINASE / CREATININE / GLUCOSE / LACTATE DEHYDROGENASE / LIPASE / PHOSPHORUS / POTASSIUM / SODIUM / TOTAL BILIRUBIN / TOTAL PROTEIN / URIC ACID: tissue Plasma

SMILES: COC(=O)C1=C(C)NC(C)=C(C(=O)OCC(C)C)C1c1ccccc1[N+](=O)[O-] (stereo unspecified) [NISOLDIPINE]
- ABSOLUTE BASOPHIL (72 h, time 3 day): 0 CELLS/uL
- ABSOLUTE EOSINOPHIL (72 h, time 3 day): 0 CELLS/uL
- ABSOLUTE LYMPHOCYTE (72 h, time 3 day): 6241.33 CELLS/uL
- ABSOLUTE MONOCYTE (72 h, time 3 day): 67 CELLS/uL
- ABSOLUTE SEGMENTED NEUTROPHIL (72 h, time 3 day): 425 CELLS/uL
- BASOPHIL (72 h, time 3 day): 0%
- EOSINOPHIL (72 h, time 3 day): 0%
- ERYTHROCYTE COUNT (72 h, time 3 day): 5.19 x10E6/uL
- HEMATOCRIT (72 h, time 3 day): 32.73%
- HEMOGLOBIN (72 h, time 3 day): 12.7 G/DL
- LEUKOCYTE COUNT (72 h, time 3 day): 6.73 x10E3/uL
- LYMPHOCYTE (72 h, time 3 day): 92.67%
- MEAN CORPUSCULAR HEMOGLOBIN (72 h, time 3 day): 24.5 pg
- MEAN CORPUSCULAR HEMOGLOBIN CONCENTRATION (72 h, time 3 day): 38.83 G/DL
- MEAN CORPUSCULAR VOLUME (72 h, time 3 day): 63.1 fL
- MONOCYTE (72 h, time 3 day): 1%
- NEUTROPHIL (72 h, time 3 day): 6.33%
- NUCLEATED RED BLOOD CELLS (72 h, time 3 day): 0 /100WBC
- PLATELET COUNT (72 h, time 3 day): 1002.33 x10E3/uL
- ALANINE AMINOTRANSFERASE (72 h, time 3 day): 56 u/L
- ALBUMIN (72 h, time 3 day): 4.03 G/DL
- ALKALINE PHOSPHATASE (72 h, time 3 day): 297.33 u/L
- ASPARTATE AMINOTRANSFERASE (72 h, time 3 day): 80.67 u/L
- BLOOD UREA NITROGEN (72 h, time 3 day): 11.67 mg/dL
- CARBON DIOXIDE (72 h, time 3 day): 30.67 mmol/L
- CHLORIDE (72 h, time 3 day): 100 MEQ/L
- CHOLESTEROL (72 h, time 3 day): 89.67 mg/dL
- CREATINE PHOSPHOKINASE (72 h, time 3 day): 318.67 u/L
- CREATININE (72 h, time 3 day): 0.11 mg/dL
- GLUCOSE (72 h, time 3 day): 147.67 mg/dL
- LACTATE DEHYDROGENASE (72 h, time 3 day): 95.33 u/L
- LIPASE (72 h, time 3 day): 13 u/L
- PHOSPHORUS (72 h, time 3 day): 9.1 mg/dL
- POTASSIUM (72 h, time 3 day): 5.7 MEQ/L
- SODIUM (72 h, time 3 day): 145.35 MEQ/L
- TOTAL BILIRUBIN (72 h, time 3 day): 0.1 mg/dL
- TOTAL PROTEIN (72 h, time 3 day): 5.77 G/DL
- URIC ACID (72 h, time 3 day): 0.47 mg/dL
- ABSOLUTE BASOPHIL (120 h, time 5 day): 0 CELLS/uL
- ABSOLUTE EOSINOPHIL (120 h, time 5 day): 0 CELLS/uL
- ABSOLUTE LYMPHOCYTE (120 h, time 5 day): 9912 CELLS/uL
- ABSOLUTE MONOCYTE (120 h, time 5 day): 68 CELLS/uL
- ABSOLUTE SEGMENTED NEUTROPHIL (120 h, time 5 day): 453.33 CELLS/uL
- BASOPHIL (120 h, time 5 day): 0%
- EOSINOPHIL (120 h, time 5 day): 0%
- ERYTHROCYTE COUNT (120 h, time 5 day): 5.6 x10E6/uL
- HEMATOCRIT (120 h, time 5 day): 34.7%
- HEMOGLOBIN (120 h, time 5 day): 13.63 G/DL
- LEUKOCYTE COUNT (120 h, time 5 day): 10.43 x10E3/uL
- LYMPHOCYTE (120 h, time 5 day): 95.33%
- MEAN CORPUSCULAR HEMOGLOBIN (120 h, time 5 day): 24.43 pg
- MEAN CORPUSCULAR HEMOGLOBIN CONCENTRATION (120 h, time 5 day): 39.3 G/DL
- MEAN CORPUSCULAR VOLUME (120 h, time 5 day): 62.07 fL
- MONOCYTE (120 h, time 5 day): 0.67%
- NEUTROPHIL (120 h, time 5 day): 4%
- NUCLEATED RED BLOOD CELLS (120 h, time 5 day): 0 /100WBC
- PLATELET COUNT (120 h, time 5 day): 1086 x10E3/uL
- ALANINE AMINOTRANSFERASE (120 h, time 5 day): 51 u/L
- ALBUMIN (120 h, time 5 day): 4.13 G/DL
- ALKALINE PHOSPHATASE (120 h, time 5 day): 346 u/L
- ASPARTATE AMINOTRANSFERASE (120 h, time 5 day): 74 u/L
- BLOOD UREA NITROGEN (120 h, time 5 day): 13.67 mg/dL
- CARBON DIOXIDE (120 h, time 5 day): 36.67 mmol/L
- CHLORIDE (120 h, time 5 day): 98.67 MEQ/L
- CHOLESTEROL (120 h, time 5 day): 67.33 mg/dL
- CREATINE PHOSPHOKINASE (120 h, time 5 day): 223.67 u/L
- CREATININE (120 h, time 5 day): 0.13 mg/dL
- GLUCOSE (120 h, time 5 day): 139.67 mg/dL
- LACTATE DEHYDROGENASE (120 h, time 5 day): 96.33 u/L
- LIPASE (120 h, time 5 day): 9 u/L
- PHOSPHORUS (120 h, time 5 day): 9.5 mg/dL
- POTASSIUM (120 h, time 5 day): 6.07 MEQ/L
- SODIUM (120 h, time 5 day): 144.53 MEQ/L
- TOTAL BILIRUBIN (120 h, time 5 day): 0.17 mg/dL
- TOTAL PROTEIN (120 h, time 5 day): 6.17 G/DL
- URIC ACID (120 h, time 5 day): 0.67 mg/dL
